From patent US20230212122A1, “MITOCHONDRIAL TARGETING COMPOUNDS FOR THE TREATMENT OF ASSOCIATED DISEASES” (The Regents of the University of Michigan, priority 2020, published 2023)

System: UM16 cell line
Experiment: GSEA of Bru-seq data (hallmark, KEGG, GO pathways, transcription factors)
Assay type: cell-based
Conditions: 4 hours
Source text: Consistent with this observation, there are also massive metabolite pathways influenced including starch and sucrose metabolism, glycolysis and gluconeogenesis, purine metabolism, pyrimidine metabolism, N-glycan biosynthesis, etc.

CCOC(=O)[C@@H]1CCCN(S(=O)(=O)c2ccc(S(=O)(=O)N(CC)CC)cc2)C1 [DX2-201, ethyl (R)-1-((4-(N,N-diethylsulfamoyl)phenyl)sulfonyl)piperidine-3-carboxylate]
ES KEGG_AMINOACYL_TRNA_BIOSYNTHESIS (5 pM): −0.4260 | ES KEGG_DNA_REPLICATION (5 pM): −0.5795 | ES KEGG_NUCLEOTIDE_EXCISION_REPAIR (5 pM): −0.4603 | ES KEGG_N_GLYCAN_BIOSYNTHESIS (5 pM): −0.5360 | ES KEGG_OXIDATIVE_PHOSPHORYLATION (5 pM): −0.4451 | ES KEGG_PARKINSONS_DISEASE (5 pM): −0.4446 | ES KEGG_PROTEASOME (5 pM): −0.5628 | ES KEGG_PURINE_METABOLISM (5 pM): −0.4914 | ES KEGG_PYRIMIDINE_METABOLISM (5 pM): −0.4987 | ES KEGG_RNA_POLYMERASE (5 pM): −0.6348 | ES KEGG_SPLICEOSOME (5 pM): −0.4510 | NES KEGG_ALZHEIMERS_DISEASE (5 pM): −1.6021 | NES KEGG_AMINOACYL_TRNA_BIOSYNTHESIS (5 pM): −1.4417 | NES KEGG_DNA_REPLICATION (5 pM): −1.9358 | NES KEGG_HUNTINGTONS_DISEASE (5 pM): −1.7040 | NES KEGG_MISMATCH_REPAIR (5 pM): −1.8751 | NES KEGG_NUCLEOTIDE_EXCISION_REPAIR (5 pM): −1.5835 | NES KEGG_N_GLYCAN_BIOSYNTHESIS (5 pM): −1.8440 | NES KEGG_OXIDATIVE_PHOSPHORYLATION (5 pM): −1.7650 | NES KEGG_PARKINSONS_DISEASE (5 pM): −1.7382 | NES KEGG_PROTEASOME (5 pM): −1.9164 | NES KEGG_PURINE_METABOLISM (5 pM): −2.0380 | NES KEGG_PYRIMIDINE_METABOLISM (5 pM): −1.9279 | NES KEGG_SPLICEOSOME (5 pM): −1.8728 | ES GO_ADP_METABOLIC_PROCESS (5 μM): 0.6343 | ES GO_ATP_GENERATION_FROM_ADP (5 μM): 0.6848 | ES GO_GLUCOSE_CATABOLIC_PROCESS (5 μM): 0.7209 | ES GO_HEXOSE_CATABOLIC_PROCESS (5 μM): 0.6548 | ES GO_MONOSACCHARIDE_CATABOLIC_PROCESS (5 μM): 0.5791 | ES GO_NADH_METABOLIC_PROCESS (5 μM): 0.6704 | ES GO_NEGATIVE_REGULATION_OF_FAT_CELL_DIFFERENTIATION (5 μM): 0.6098 | ES GO_NUCLEOTIDE_PHOSPHORYLATION (5 μM): 0.5920 | ES GO_PYRUVATE_METABOLIC_PROCESS (5 μM): 0.6035 | ES GO_RESPONSE_TO_OXYGEN_LEVELS (5 μM): 0.4230 | ES GO_RIBONUCLEOSIDE_DIPHOSPHATE_METABOLIC_PROCESS (5 μM): 0.5746 | ES HALLMARK_ALLOGRAFT_REJECTION (5 μM): 0.2962 | ES HALLMARK_ANDROGEN_RESPONSE (5 μM): 0.3155 | ES HALLMARK_ANGIOGENESIS (5 μM): −0.5078 | ES HALLMARK_APOPTOSIS (5 μM): 0.3812 | ES HALLMARK_BILE_ACID_METABOLISM (5 μM): 0.3249 | ES HALLMARK_CHOLESTEROL_HOMEOSTASIS (5 μM): 0.4969 | ES HALLMARK_DNA_REPAIR (5 μM): −0.4085 | ES HALLMARK_E2F_TARGETS (5 μM): −0.3804 | ES HALLMARK_ESTROGEN_RESPONSE_LATE (5 μM): 0.3437 | ES HALLMARK_FATTY_ACID_METABOLISM (5 μM): 0.2942 | ES HALLMARK_GLYCOLYSIS (5 μM): 0.4109 | ES HALLMARK_HEDGEHOG_SIGNALING (5 μM): 0.4848 | ES HALLMARK_HEME_METABOLISM (5 μM): 0.3641 | ES HALLMARK_HYPOXIA (5 μM): 0.6294 | ES HALLMARK_IL2_STAT5_SIGNALING (5 μM): 0.3402 | ES HALLMARK_INFLAMMATORY_RESPONSE (5 μM): 0.2995 | ES HALLMARK_KRAS_SIGNALING_DN (5 μM): 0.3965 | ES HALLMARK_MITOTIC_SPINDLE (5 μM): 0.3104 | ES HALLMARK_MTORC1_SIGNALING (5 μM): 0.2680 | ES HALLMARK_MYC_TARGETS_V1 (5 μM): −0.5426 | ES HALLMARK_MYC_TARGETS_V2 (5 μM): −0.6265 | ES HALLMARK_MYOGENESIS (5 μM): 0.3657 | ES HALLMARK_OXIDATIVE_PHOSPHORYLATION (5 μM): −0.3812 | ES HALLMARK_P53_PATHWAY (5 μM): 0.3403 | ES HALLMARK_TNFA_SIGNALING_VIA_NFKB (5 μM): 0.3199 | ES HALLMARK_UNFOLDED_PROTEIN_RESPONSE (5 μM): −0.3254 | ES HALLMARK_UV_RESPONSE_DN (5 μM): 0.3784 | ES HALLMARK_XENOBIOTIC_METABOLISM (5 μM): 0.2890 | ES KEGG_DORSO_VENTRAL_AXIS_FORMATION (5 μM): 0.6614 | ES KEGG_GLYCOLYSIS_GLUCONEOGENESIS (5 μM): 0.5362 | ES KEGG_LEISHMANIA_INFECTION (5 μM): 0.5017 | ES KEGG_REGULATION_OF_AUTOPHAGY (5 μM): 0.5972 | ES KEGG_RENAL_CELL_CARCINOMA (5 μM): 0.4210 | ES KEGG_STARCH_AND_SUCROSE_METABOLISM (5 μM): 0.7356 | ES KEGG_TYPE_II_DIABETES_MELLITUS (5 μM): 0.5316 | NES GO_ADP_METABOLIC_PROCESS (5 μM): 2.1062 | NES GO_ATP_GENERATION_FROM_ADP (5 μM): 2.0929 | NES GO_GLUCOSE_CATABOLIC_PROCESS (5 μM): 2.1191 | NES GO_HEXOSE_CATABOLIC_PROCESS (5 μM): 2.1301 | NES GO_MONOSACCHARIDE_CATABOLIC_PROCESS (5 μM): 1.9771 | NES GO_NADH_METABOLIC_PROCESS (5 μM): 2.0814 | NES GO_NEGATIVE_REGULATION_OF_FAT_CELL_DIFFERENTIATION (5 μM): 1.9052 | NES GO_NUCLEOTIDE_PHOSPHORYLATION (5 μM): 2.0727 | NES GO_PYRUVATE_METABOLIC_PROCESS (5 μM): 2.1281 | NES GO_RESPONSE_TO_OXYGEN_LEVELS (5 μM): 1.9612 | NES GO_RIBONUCLEOSIDE_DIPHOSPHATE_METABOLIC_PROCESS (5 μM): 2.0919 | NES HALLMARK_ALLOGRAFT_REJECTION (5 μM): 1.2241 | NES HALLMARK_ANDROGEN_RESPONSE (5 μM): 1.3002 | NES HALLMARK_ANGIOGENESIS (5 μM): −1.4124 | NES HALLMARK_APOPTOSIS (5 μM): 1.6931 | NES HALLMARK_BILE_ACID_METABOLISM (5 μM): 1.2479 | NES HALLMARK_CHOLESTEROL_HOMEOSTASIS (5 μM): 1.9354 | NES HALLMARK_DNA_REPAIR (5 μM): −1.7322 | NES HALLMARK_E2F_TARGETS (5 μM): −1.7010 | NES HALLMARK_ESTROGEN_RESPONSE_LATE (5 μM): 1.5630 | NES HALLMARK_FATTY_ACID_METABOLISM (5 μM): 1.2729 | NES HALLMARK_GLYCOLYSIS (5 μM): 1.8782 | NES HALLMARK_HEDGEHOG_SIGNALING (5 μM): 1.3854 | NES HALLMARK_HEME_METABOLISM (5 μM): 1.6288 | NES HALLMARK_HYPOXIA (5 μM): 2.8139 | NES HALLMARK_IL2_STAT5_SIGNALING (5 μM): 1.5174 | NES HALLMARK_INFLAMMATORY_RESPONSE (5 μM): 1.2667 | NES HALLMARK_KRAS_SIGNALING_DN (5 μM): 1.4318 | NES HALLMARK_MITOTIC_SPINDLE (5 μM): 1.4709 | NES HALLMARK_MTORC1_SIGNALING (5 μM): 1.2451 | NES HALLMARK_MYC_TARGETS_V1 (5 μM): −2.4192 | NES HALLMARK_MYC_TARGETS_V2 (5 μM): −2.2565 | NES HALLMARK_MYOGENESIS (5 μM): 1.5149 | NES HALLMARK_OXIDATIVE_PHOSPHORYLATION (5 μM): −1.6882 | NES HALLMARK_P53_PATHWAY (5 μM): 1.5682 | NES HALLMARK_TNFA_SIGNALING_VIA_NFKB (5 μM): 1.4745 | NES HALLMARK_UNFOLDED_PROTEIN_RESPONSE (5 μM): −1.3390 | NES HALLMARK_UV_RESPONSE_DN (5 μM): 1.6434 | NES HALLMARK_XENOBIOTIC_METABOLISM (5 μM): 1.2573 | NES KEGG_DORSO_VENTRAL_AXIS_FORMATION (5 μM): 1.9145 | NES KEGG_GLYCOLYSIS_GLUCONEOGENESIS (5 μM): 1.8482 | NES KEGG_LEISHMANIA_INFECTION (5 μM): 1.6760 | NES KEGG_REGULATION_OF_AUTOPHAGY (5 μM): 1.7250 | NES KEGG_RENAL_CELL_CARCINOMA (5 μM): 1.6054 | NES KEGG_STARCH_AND_SUCROSE_METABOLISM (5 μM): 2.1177 | NES KEGG_TYPE_II_DIABETES_MELLITUS (5 μM): 1.6335
